Earlier results in US8349557B2 (priority 2008, dated 2013).
Where two headings read alike, the source gives them in different places.

Assays:
skeletal muscle = conditions: in some patients
cerebellar granule cells = conditions: 24 hours
[1] = system: rat hepatoma cell line, H-4-II-E cells

| SMILES | degradation of long-lived proteins (lysosomes) | lysosomal pH (lysosomes) | autophagic vacuolation in skeletal muscle (skeletal muscle) | V-ATPase activity (V-ATPase; 0.3 nM bafilomycin) | V-ATPase activity (V-ATPase; 10 nM bafilomycin) | V-ATPase activity (V-ATPase; 100 nM bafilomycin (high-dose)) | vacuoles in the cytoplasm (cerebellar granule cells; 0.3 nM bafilomycin) | vacuoles in the cytoplasm (cerebellar granule cells; 10 nM bafilomycin) | effect on macroautophagy / autophagosome formation [1] | effect on macroautophagy / autophagosome formation ([1]; non-starved cells, 100 nM bafilomycin, one hour) |
| --- | --- | --- | --- | --- | --- | --- | --- | --- | --- | --- |
| CCN(CC)CCCC(C)Nc1ccnc2cc(Cl)ccc12 (stereo not shown) [chloroquine] | impairs the degradation of long-lived proteins | raises their pH | florid autophagic vacuolation | – | – | – | – | – | – | – |
| CO/C1=C\C(C)=C\[C@@H](C)[C@@H](O)[C@@H](C)C/C(C)=C/C=C/[C@H](OC)[C@@H]([C@@H](C)[C@@H](O)[C@H](C)[C@@]2(O)C[C@@H](O)[C@H](C)[C@@H](C(C)C)O2)OC1=O [bafilomycin] | – | – | – | 40-50 % of normal | below 10% | completely eliminates V-ATPase activity | not present | accumulation of large, swollen, single-membraned vacuoles in the cytoplasm with electron-dense deposits | explosive autophagosome formations occupying vast portions of the cytoplasm | no significant effect |
